Source: US20180305332A1, “Bispiperidinyl Derivatives as Liver X Receptor Beta Agonists, Compositions, and Their Use” (Merck Sharp & Dohme Corp., priority 2015, published 2018)

How the values were obtained:
[1] = molecular target: T1, GST tagged LXRalpha LBD (ligand binding domain) (Homo sapiens, UniProt Q13133); assay: LanthaScreen TR-FRET Liver X Receptor Coactivator Assay, LXR alpha-LBD; assay type: biochemical; settings: relative to reference T0901317; for EC50 / LXR alpha IP (nM): Inflection Point (potency), co-activator recruitment; for EC50: read-out: LXR alpha IP; for Emax: activity at max dose (efficacy), read-out: LXR alpha act @ max dose (%)
T1 construct: purchased Invitrogen pv4655
T1 sequence (Q13133 209-447 limits assumed): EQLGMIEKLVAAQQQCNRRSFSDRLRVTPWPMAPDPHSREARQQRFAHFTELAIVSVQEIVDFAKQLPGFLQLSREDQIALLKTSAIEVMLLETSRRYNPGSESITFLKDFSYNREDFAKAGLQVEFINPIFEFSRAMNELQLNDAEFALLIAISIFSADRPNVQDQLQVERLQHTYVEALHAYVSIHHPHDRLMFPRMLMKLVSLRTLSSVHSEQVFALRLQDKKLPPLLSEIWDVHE
Procedure, shortened: (§1)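 Coactivator-recruitment TR-FRET format: GST-LBD, fluorescein-labelled coactivator peptide, Tb-conjugated anti-GST antibody, incubated at RT. Potency and efficacy scaled to T0901317.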

[2] = molecular target: T2, GST tagged LXRbeta LBD (ligand binding domain) (Homo sapiens, UniProt P55055); assay: LanthaScreen TR-FRET Liver X Receptor Coactivator Assay, LXR beta-LBD; assay type: biochemical; settings: relative to reference T0901317; for EC50: Inflection Point (potency), co-activator recruitment, read-out: LXR beta IP; for Emax: activity at max dose (efficacy), read-out: LXR beta act @ max dose (%)
T2 construct: purchased Invitrogen pv4658.pps
T2 sequence (P55055 222-460 limits assumed): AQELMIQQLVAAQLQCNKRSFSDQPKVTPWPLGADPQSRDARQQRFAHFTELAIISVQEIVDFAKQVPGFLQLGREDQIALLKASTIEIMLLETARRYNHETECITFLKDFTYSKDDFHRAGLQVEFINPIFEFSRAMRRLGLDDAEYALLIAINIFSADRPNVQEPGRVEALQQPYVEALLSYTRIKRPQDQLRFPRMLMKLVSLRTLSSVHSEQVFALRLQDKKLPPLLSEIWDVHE
Procedure, shortened: as §1

| EC50 [1] | Emax [1] | EC50 [2] | Emax [2] | LXR alpha IP (nM) [1] | Compound |
| --- | --- | --- | --- | --- | --- |
| 2120 nM | 62% | 73 nM | 119% |  | CN(C)C(=O)c1ccc(N2CCC(C3CCN(C(=O)C(O)(C(F)(F)F)C4(C)CC4)CC3)CC2)cc1Cl (centres unmarked) [Example A-30, 2-chloro-N,N-dimethyl-4-{1′-[3,3,3-trifluoro-2-hydroxy-2-(1-methylcyclopropyl)propanoyl]-4,4′-bipiperidin-1-yl}benzamide] |
| 3230 nM | 29% | 256 nM | 108% |  | CN(C)C(=O)c1ccc(N2CCC(C3CCN(C(=O)[C@@](C)(O)c4ccccc4)CC3)CC2)cc1Cl [Example A-53, 2-chloro-4-{1′-[(2S)-2-hydroxy-2-phenylpropanoyl]-4,4′-bipiperidin-1-yl}-N,N-dimethylbenzamide] |
| 748 nM | 76% | 16 nM | 106% |  | CN(C)C(=O)c1ccc(N2CCC(C3CCN(C(=O)OC(C)(C)C)CC3)CC2)cc1Cl [Example A-1, tert-Butyl 1′-(3-chloro-4-(dimethylcarbamoyl)phenyl)-[4,4′-bipiperidine]-1-carboxylate] |
| 620 nM | 40% | 54 nM | 128% |  | CN(C)C(=O)c1ccc(N2CCC(C3CCN(C(=O)[C@@](O)(c4ccccc4)C(F)(F)C(F)(F)F)CC3)CC2)cc1Cl (single isomer, unassigned) [Example A-43] |
| 2480 nM | 21% | 251 nM | 90% |  | COc1cccc([C@](O)(C(=O)N2CCC(C3CCN(c4ccc(C(=O)N(C)C)c(Cl)c4)CC3)CC2)C(F)(F)F)c1 (single isomer, unassigned) [Example A-66] |
| 3690 nM | 59% | 100 nM | 112% |  | CN(C)C(=O)c1ccc(N2CCC(C3CCN(C(=O)C(C)(C)c4ccc(O)cc4)CC3)CC2)cc1Cl [Example A-58, 2-chloro-4-{1′-[2-(4-hydroxyphenyl)-2-methylpropanoyl]-4,4′-bipiperidin-1-yl}-N,N-dimethylbenzamide] |
| 2200 nM | 48% | 177 nM | 116% |  | CN(C)C(=O)c1ccc(N2CCC(C3CCN(C(=O)C(C)(O)C(F)(F)F)CC3)CC2)nc1Cl (centres unmarked) [Example B-11, 2-chloro-N,N-dimethyl-6-[1′-(3,3,3-trifluoro-2-hydroxy-2-methylpropanoyl)-4,4′-bipiperidin-1-yl]pyridine-3-carboxamide] |
| 2100 nM | 62% | 512 nM | 125% |  | C#CC(C)(C)C(=O)N1CCC(C2CCN(c3ccc(C(=O)N(C)C)c(Cl)c3)CC2)CC1 [Example A-11, 2-chloro-4-[1′-(2,2-dimethylbut-3-ynoyl)-4,4′-bipiperidin-1-yl]-N,N-dimethylbenzamide] |
| 217 nM | 59% | 7 nM | 86% |  | CN(C)C(=O)c1ccc(N2CCC(C3CCN(C(=O)C(O)(C(F)(F)F)C(F)(F)F)CC3)CC2)cc1Cl [Example A-35, 2-chloro-N,N-dimethyl-4-{1′-[3,3,3-trifluoro-2-hydroxy-2-(trifluoromethyl)propanoyl]-4,4′-bipiperidin-1-yl}benzamide] |
| 761 nM | 53% | 111 nM | 101% |  | CC(C)N(C)C(=O)c1ccc(N2CCC(C3CCN(C(=O)C(O)(C(C)C)C(F)(F)F)CC3)CC2)cc1Cl (centres unmarked) [Example E-6, 2-chloro-4-{1′-[2-hydroxy-3-methyl-2-(trifluoromethyl)butanoyl]-4,4′-bipiperidin-1-yl}-N-methyl-N-(1-methylethyl)benzamide] |

Further lines, the molecule ahead of its results:

| Compound | EC50 [1] | Emax [1] | EC50 [2] | Emax [2] | LXR alpha IP (nM) [1] |
| --- | --- | --- | --- | --- | --- |
| O=C(c1c(F)cccc1F)N1CCC(C2CCN(c3ccc(C(=O)N4CCCC4CO)c(Cl)c3)CC2)CC1 (centres unmarked) [Example E-12, {1-[(2-chloro-4-{1′-[(2,6-difluorophenyl)carbonyl]-4,4′-bipiperidin-1-yl}phenyl)carbonyl]pyrrolidin-2-yl}methanol] | 1220 nM | 58% | 128 nM | 84% |  |
| CN(C)C(=O)c1ccc(N2CCC(C3CCN(C(=O)C4(c5ccc(O)cc5)CCCC4)CC3)CC2)cc1Cl [Example A-67, 2-chloro-4-(1′-{[1-(4-hydroxyphenyl)cyclopentyl]carbonyl}-4,4′-bipiperidin-1-yl)-N,N-dimethylbenzamide] |  | 26% | 107 nM | 75% | NO IP |
| CC(C)(C)OC(=O)NCC1CN(C(=O)c2ccc(N3CCC(C4CCN(C(=O)[C@](O)(c5ccccc5)C(F)(F)F)CC4)CC3)cc2Cl)C1 [Example E-39, tert-butyl ({1-[(2-chloro-4-{1′-[(2R)-3,3,3-trifluoro-2-hydroxy-2-phenylpropanoyl]-4,4′-bipiperidin-1-yl}phenyl)carbonyl]azetidin-3-yl}methyl)carbamate] | 1430 nM | 43% | 141 nM | 99% |  |
| CN(C)C(=O)c1ccc(N2CCC(C3CCN(S(=O)(=O)c4c(Cl)cccc4C(F)(F)F)CC3)CC2)cc1Cl [Example A-105, 2-chloro-4-(1′-{[2-chloro-6-(trifluoromethyl)phenyl]sulfonyl}-4,4′-bipiperidin-1-yl)-N,N-dimethylbenzamide] | 1090 nM | 44% | 55 nM | 118% |  |
| CC(C)(C)OC(=O)N1CCC(C2CCN(c3ccc(C(C)(C)O)c(Cl)c3)CC2)CC1 [Example E-69, tert-butyl 1′-[3-chloro-4-(1-hydroxy-1-methylethyl)phenyl]-4,4′-bipiperidine-1-carboxylate] | 996 nM | 56% | 322 nM | 69% |  |
| O=C(c1ccc(N2CCC(C3CCN(C(=O)[C@](O)(c4ccccc4)C(F)(F)F)CC3)CC2)cc1Cl)N1CCC[C@H]1CO [Example E-63, (2R)-3-[1′-(3-chloro-4-{[(2S)-2-(hydroxymethyl)pyrrolidin-1-yl]carbonyl}phenyl)-4,4′-bipiperidin-1-yl]-1,1,1-trifluoro-3-oxo-2-phenylpropan-2-ol] | 359 nM | 51% | 21 nM | 86% |  |
| CN(C)C(=O)c1ccc(N2CCC(C3CCN(S(=O)(=O)c4c(Cl)cccc4Cl)CC3)CC2)cc1Cl [Example A-104, 2-chloro-4-{1′-[(2,6-dichlorophenyl)sulfonyl]-4,4′-bipiperidin-1-yl}-N,N-dimethylbenzamide] | 2340 nM | 67% | 21 nM | 129% |  |
| CN(C(=O)c1ccc(N2CCC(C3CCN(C(=O)[C@](O)(c4ccccc4)C(F)(F)F)CC3)CC2)cc1Cl)C1CCOC1 (stereo partly drawn) [Example E-53, 2-chloro-N-methyl-N-(tetrahydrofuran-3-yl)-4-{1′-[(2R)-3,3,3-trifluoro-2-hydroxy-2-phenylpropanoyl]-4,4′-bipiperidin-1-yl}benzamide] | 1600 nM | 34% | 219 nM | 98% |  |
| O=C(c1ccc(N2CCC(C3CCN(C(=O)[C@](O)(c4ccccc4)C(F)(F)F)CC3)CC2)cc1Cl)N1CCCC1C1CC1 (stereo partly drawn) [Example E-57, (2R)-3-(1′-{3-chloro-4-[(2-cyclopropylpyrrolidin-1-yl)carbonyl]phenyl}-4,4′-bipiperidin-1-yl)-1,1,1-trifluoro-3-oxo-2-phenylpropan-2-ol] | 975 nM | 16% | 134 nM | 65% |  |
| CN(CCO)C(=O)c1ccc(N2CCC(C3CCN(C(=O)[C@](O)(c4ccccc4)C(F)(F)C(F)(F)F)CC3)CC2)cc1Cl [Example E-64, 2-chloro-N-(2-hydroxyethyl)-N-methyl-4-{1′-[(2R)-3,3,4,4,4-pentafluoro-2-hydroxy-2-phenylbutanoyl]-4,4′-bipiperidin-1-yl}benzamide] | 913 nM | 54% | 26 nM | 146% |  |
| Cc1nnc(CN(C)C(=O)c2ccc(N3CCC(C4CCN(C(=O)[C@](O)(c5ccccc5)C(F)(F)F)CC4)CC3)cc2Cl)o1 [Example E-47, 2-chloro-N-methyl-N-[(5-methyl-1,3,4-oxadiazol-2-yl)methyl]-4-{1′-[(2R)-3,3,3-trifluoro-2-hydroxy-2-phenylpropanoyl]-4,4′-bipiperidin-1-yl}benzamide] |  | 10% | 334 nM | 71% | NO IP |
| CN(C)C(=O)c1ccc(N2CCC(C3CCN(C(=O)C4(c5ccccc5)CC4)CC3)CC2)cc1Cl [Example A-39, 2-chloro-N,N-dimethyl-4-{1′-[(1-phenylcyclopropyl)carbonyl]-4,4′-bipiperidin-1-yl}benzamide] | 5510 nM | 32% | 140 nM | 101% |  |
| CN(C)C(=O)c1ccc(N2CCC(C3CCN(C(=O)[C@@](O)(c4ccccc4)C(F)(F)C(F)(F)F)CC3)CC2)nc1Cl (single isomer, unassigned) [Example B-17] | 854 nM | 39% | 30 nM | 130% |  |
